Key:
rat brown adipose tissue = assay: Ex vivo model of thermogenesis: oxygen consumption of a sample of rat brown adipose tissue; type: cell-based
Method: These studies were carried out on an ex vivo pharmacological model of thermogenesis. The principle is to measure the oxygen consumption of a sample of rat brown adipose tissue; the oxygen consumption is proportional to the thermogenesis induced in the adipose tissue by the various test substances.

thermogenesis = assay: Increase in thermogenesis in man (total expenditure of energy over 24 h, 10 volunteers); type: in vivo
Method: The increase in thermogenesis in man by an extract of green tea according to the invention was also determined. A similar study was carried out on 10 volunteers receiving at each meal either 500 mg of an extract of green tea (corresponding to 125 mg of catechols and 50 mg of caffeine), or 50 mg of caffeine, or a placebo.

| Structure (SMILES) | Increase in oxygen consumption (rat brown adipose tissue; Caffeine 0, EGCG 100 μM) | Increase in oxygen consumption (rat brown adipose tissue; Caffeine 0, EGCG 200 μM) | total expenditure of energy over 24 h (thermogenesis; 50 mg of caffeine at each meal, placebo 9538 kJ) [kJ] | effect on thermogenesis, result in words (thermogenesis; caffeine alone at the same dose as provided by the extract) | Increase in oxygen consumption (rat brown adipose tissue; Caffeine 100 μM, EGCG 0) |
| --- | --- | --- | --- | --- | --- |
| O=C(O[C@@H]1Cc2c(O)cc(O)cc2O[C@@H]1c1cc(O)c(O)c(O)c1)c1cc(O)c(O)c(O)c1 [EGCG, epigallocatechol gallate] | no | +40% |  |  |  |
| Cn1c(=O)c2c(ncn2C)n(C)c1=O [caffeine] |  |  | 9599 | does not increase thermogenesis | no |

Reference: patent publication US6830765B2, “Green tea extract for treating obesity” (priority 1999, dated 2004)
